US20230173084A1, “PEPTIDE-BASED SYNTHETIC CHLORIDE ION TRANSPORTERS” (Tavanta Therapeutics Hungary Incorporated, priority 2019, published 2023)

How the values were obtained:
[1] = system: pancreatic organoids; assay: intracellular Cl- level (MQAE) in 3D pancreatic organoids; type: cell-based; conditions: 100 µM
Method: To assess the biological activity of CPPs changes of intracellular Cl^— level was measured by loading HEK-293 cells with 5 µM N-(Ethoxycarbonylmethyl)-6-Methoxyquinolinium Bromide (MQAE; ThermoFischer; Catalog number: E3101) for 30 min in the presence of 0.05% Pluronic F-127. Cells were bathed with Cl^— free external solution and treated with different concentrations of CPPs at 37° C. at the perfusion rate of 2-3 ml/min. Region of interests (ROIs) were determined by the xcellence softver (Olympus) and changes of Cl^— were determined by exciting the cells with an MT20 light source equipped with a 340/11 nm excitation filter. Excitation and emission wavelengths were separated by a 400 nm beam splitter and the emitted light was captured by a Hamamatsu ORCA- ER CCD camera. One measurement per second was obtained. During further analysis the fluorescence signals were normalized to the initial fluorescence intensity (F1/F0) and expressed as normalized MQAE fluorescence (FIG. 2). […] N: 4-5 independent experiments/each tested condition.
To test the Cl^— transporting capability of CPPs in primary 3D cells, organoids were loaded with MQAE as above described and bathed in standard HEPES buffered solution (FIG. 4.). […] N: 4-5 independent experiments/each tested condition.

[2] = system: HEK-293 cells; assay: apoptosis/necrosis detection kit, effect on cell fate; type: cell-based; conditions: for apoptotic cell death: 30 min; for necrotic cell death: 30 min incubation at 37° C.; for toxicity: even in 100 µM
Method: (§1) To investigate the effect of compounds according to the invention on cell fate, an apoptosis/necrosis detection kit was used according to the manufacturer’s instruction (Abcam Cat. No.: ab176750). Briefly, HEK-293 cells were incubated with various concentrations of CPPs for 30 min at 37° C. Cells were then washed 3 times and were incubated in 200 µL of Assay Buffer and loaded with CytoCalcein 450, Nuclear Green and Apopxin Deep Red at room temperature for 30-60 min. Following this, cells were washed and imaged. Images were captured using a Zeiss LSM880 confocal microscope with different channels and wavelengths according to each dye: CytoCalcein 450 (Ex/Em = 405/450 nm), Nuclear Green (Ex/Em = 490/520 nm) and Apopxin Deep Red (Ex/Em = 630/660 nm). For each condition, five images were captured and the total number of cells were counted by two independent investigators. Results are visualized in % of total cell number (live/apoptotic/necrotic) (FIG. 1). […] However, the majority of cells survived the treatment.

[3] = as above; type: cell-based; conditions: human; HEK-293 cells, 100 µM, 30 min; read-out: viable cells after the incubation
Method: as §1

[4] = system: CFTR knockout mice; assay: severity of lung fibrosis in Cftr knockout mice, nebulized treatment; type: in vivo, mouse
Source text: To assess the effect of in vivo administrated Formula (II) on lung histology parameters, this Example use Cftr^tm1UncTg(FABPCFTR)1Jaw/J mice (Jackson Laboratory, Stock No: 002364). FABP-hCFTR-CFTR bitransgenic mice harbor the FABP-hCFTR transgene [rat fatty acid binding protein 2, intestinal promoter directing expression of a human cystic fibrosis transmembrane conductance regulator (ATP-binding cassette sub-family C, member 7) gene] and a targeted knock-out mutation of the cystic fibrosis transmembrane conductance regulator homolog gene (Cftr). The mice used in this study were 8-12 weeks old and weighted 20-25 grams in the case of wild type (WT) animals and 15-17 grams in the case of CFTR knockout animals, the gender ratio was 1:1 for all groups. Experiments were carried out with adherence to the NIH guidelines and the EU directive 2010/63/EU for the protection of animals used for scientific purposes. The study was authorized by the National Scientific Ethical Committee on Animal Experimentation under license number XXI./1540/2020. Formula (II) was dissolved in physiological saline in a concentration of 10 µM. Treated mice received 400 µL Formula (II) dissolved in physiological saline solution in 5 minutes in a nebulizer in continuous oxygen flow (2L/min). Control animals received physiological saline as vehicle. The mice were grouped into 4 treatment groups as follows: wild type control (Group 1), CFTR knockout control (Group 2), wild type treated (Group 3), CFTR knockout treated (Group 4). Treatment was performed daily for 4 weeks. At the end of the experiments, mice received terminal anesthesia and the lungs were removed. Lungs were fixed for histology and trichrome staining was performed to assess lung parenchyma density and lung fibrosis. Sections were digitalized and fibrosis was scored as follows. 1388×1038 resolution pictures were taken with 10x and 40x magnification objectives with Zeiss ICc3 camera. […] Positive pixels were counted as fibrosis, negative pixels were counted as tissue. […]

| SMILES | effect on the fluorescent increase after removal of extracellular Cl- (CFTR-mediated Cl- efflux) [1] | apoptotic cell death ([2]; 10 µM) | apoptotic cell death ([2]; 100 µM) | necrotic cell death [2] | toxicity [2] | viability at 0.5 h, 100 µM [3] | body weight ([4]; all groups, 4 weeks of daily treatment) | adverse events during the treatment ([4]; mice, nebulized daily for 4 weeks) | clinical signs of toxicity ([4]; treated animals, nebulized daily for 4 weeks) |
| --- | --- | --- | --- | --- | --- | --- | --- | --- | --- |
| O=C(O)c1ccc(/C=C2\SC(=S)N(c3cccc(C(F)(F)F)c3)C2=O)cc1 [CFTRinh172] | almost completely abolished the fluorescent increase |  |  |  |  |  |  |  |  |
| CC[C@H](C)[C@H](NC(=O)[C@H](CCCCN)NC(=O)[C@@H](NC(=O)[C@H](CCC(N)=O)NC(=O)[C@H](CCCNC(=N)N)NC(=O)CCCCCNC(=S)Nc1cc(C(F)(F)F)cc(C(F)(F)F)c1)[C@@H](C)CC)C(=O)N[C@@H](Cc1c[nH]c2ccccc12)C(=O)N[C@@H](Cc1ccccc1)C(=O)N[C@@H](CCC(N)=O)C(=O)N[C@@H](CC(N)=O)C(=O)N[C@@H](CCCNC(=N)N)C(=O)N[C@@H](CCCNC(=N)N)C(=O)N[C@@H](CCSC)C(=O)N[C@@H](CCCCN)C(=O)N[C@@H](Cc1c[nH]c2ccccc12)C(=O)N[C@@H](CCCCN)C(=O)N[C@@H](CCCCN)C(N)=O [Formula (II)] |  | limited rate of apoptotic cell death | limited rate of apoptotic cell death | no necrotic cell death was observed | negligible toxicity | 97.3% | maintained their initial weights | no adverse events were observed | No clinical signs of toxicity were observed |
| CC[C@H](C)[C@H](NC(=O)[C@H](CCCCN)NC(=O)[C@@H](NC(=O)[C@H](CCC(N)=O)NC(=O)[C@H](CCCNC(=N)N)NC(=O)c1ccc(N=C=S)cc1)[C@@H](C)CC)C(=O)N[C@@H](Cc1c[nH]c2ccccc12)C(=O)N[C@@H](Cc1ccccc1)C(=O)N[C@@H](CCC(N)=O)C(=O)N[C@@H](CC(N)=O)C(=O)N[C@@H](CCCNC(=N)N)C(=O)N[C@@H](CCCNC(=N)N)C(=O)N[C@@H](CCSC)C(=O)N[C@@H](CCCCN)C(=O)N[C@@H](Cc1c[nH]c2ccccc12)C(=O)N[C@@H](CCCCN)C(=O)N[C@@H](CCCCN)C(N)=O [Formula (III)] |  |  | limited rate of apoptotic cell death | no necrotic cell death was observed | negligible toxicity | 97.3% |  |  |  |
